The values that follow are results of earlier work, collected in patent US20050032891A1, “Method for treating alcoholic hepatitis” (University of Pittsburgh-of the Commonwealth System of …, priority 2003, published 2005).

This data set deals with rats subjected to hemorrhagic shock and resuscitation. As to conditions: treatment with EP.

With `CCOC(=O)C(C)=O` [EP, ethyl pyruvate], the hepatic lipid peroxidation result is reported as “decreases hepatic lipid peroxidation”.
